Patent US9296693B2, “Acyl piperidine inhibitors of soluble epoxide hydrolase” (The Regents of the University of California, priority 2010, dated 2016)
Where “and” joins values, the source holds several entries; their conditions need not be identical. Identical values can stand only once. Like-named read-outs stand apart in the source and are kept apart here.

Assays:
murine sEH = murine sEH (Mus musculus (Mouse), UniProt P34914); assay: fluorescent based IC50 assay (CMNPC substrate), recombinant murine sEH; assay type: biochemical; settings: homogenous recombinant murine sEH 1 nM, CMNPC 5 μM, pH 7.0, 30° C., average of three replicates
Human sEH = Human sEH (Homo sapiens (Human), UniProt P34913); assay: fluorescent based IC50 assay (CMNPC substrate), recombinant human sEH;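 further: enzyme preincubated with inhibitor for 5 min before adding substrate, in 25 mM Bis-Tris/HCl buffer supplemented with 0.1 mg/mL BSA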
[1] = Pharmacokinetic screening of selected haloalkyl-phenyl ureas, blood profiles; assay type: in vivo; settings: whole blood
[2] = read-out: IC50 (nM) Human, homogenous recombinant human sEH 1 nM, CMNPC 5 μM, pH 7.0, 30° C., average of three replicates

Sequence of murine sEH (P34914 whole entry): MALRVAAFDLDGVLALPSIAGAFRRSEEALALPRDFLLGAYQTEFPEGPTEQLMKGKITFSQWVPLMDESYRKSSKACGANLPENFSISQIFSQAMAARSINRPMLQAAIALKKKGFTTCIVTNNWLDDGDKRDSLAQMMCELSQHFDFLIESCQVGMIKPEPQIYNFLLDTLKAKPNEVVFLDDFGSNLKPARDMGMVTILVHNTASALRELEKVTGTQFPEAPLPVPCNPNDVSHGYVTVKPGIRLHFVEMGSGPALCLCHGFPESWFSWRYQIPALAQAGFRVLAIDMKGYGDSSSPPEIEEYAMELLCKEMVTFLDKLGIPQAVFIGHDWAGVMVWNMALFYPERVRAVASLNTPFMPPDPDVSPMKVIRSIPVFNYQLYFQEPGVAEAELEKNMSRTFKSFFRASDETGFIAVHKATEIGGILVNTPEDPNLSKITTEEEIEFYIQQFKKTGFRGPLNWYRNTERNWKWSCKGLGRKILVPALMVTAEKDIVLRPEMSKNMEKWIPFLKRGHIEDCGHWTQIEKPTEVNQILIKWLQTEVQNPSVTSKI
Sequence of Human sEH (P34913 whole entry): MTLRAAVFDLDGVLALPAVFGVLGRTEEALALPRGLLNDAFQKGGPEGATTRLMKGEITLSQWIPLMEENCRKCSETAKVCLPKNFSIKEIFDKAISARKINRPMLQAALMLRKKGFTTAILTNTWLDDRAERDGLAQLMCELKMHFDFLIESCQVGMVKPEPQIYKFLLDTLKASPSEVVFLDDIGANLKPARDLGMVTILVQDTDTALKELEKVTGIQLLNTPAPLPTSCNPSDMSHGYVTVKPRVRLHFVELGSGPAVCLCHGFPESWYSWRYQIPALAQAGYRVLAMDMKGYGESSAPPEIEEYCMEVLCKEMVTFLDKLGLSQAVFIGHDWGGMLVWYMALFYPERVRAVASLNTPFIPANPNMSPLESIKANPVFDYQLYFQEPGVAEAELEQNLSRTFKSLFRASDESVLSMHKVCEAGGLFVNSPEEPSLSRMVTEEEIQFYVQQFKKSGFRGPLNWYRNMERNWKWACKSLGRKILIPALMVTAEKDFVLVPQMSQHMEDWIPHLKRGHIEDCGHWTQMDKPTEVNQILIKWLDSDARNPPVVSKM

IC50 (murine sEH) | IC50 (Human sEH; [2]) [nM] | SMILES | other results
1.2 nM | 2.8 | CCC(=O)N1CCC(NC(=O)NC23CC4CC(CC(C4)C2)C3)CC1 [Compound 2, 1-(1-Adamantyl)-3-(1-propionylpiperidin-4-yl)urea] | 
0.9 nM | 3.9 | CCC(=O)N1CCC(NC(=O)NC2CCCCCC2)CC1 [Compound 3, 1-Cycloheptyl-3-(1-propionylpiperidin-4-yl)urea] | 
3.5 nM | 12 | CCC(=O)N1CCC(NC(=O)NC2CCCCC2)CC1 [Compound 4, 1-Cyclohexyl-3-(1-propionylpiperidin-4-yl)urea] | 
0.4 nM | 3.2 | CCCCCCCCNC(=O)NC1CCN(C(=O)CC)CC1 [Compound 5, 1-Octyl-3-(1-propionylpiperidin-4-yl)urea] | 
49 nM | 130 | CCC(=O)N1CCC(NC(=O)Nc2ccccc2)CC1 [Compound 7, 1-Phenyl-3-(1-propionylpiperidin-4-yl)urea] | 
4.2 nM | 3 | CCC(=O)N1CCC(NC(=O)Nc2ccc3ccccc3c2)CC1 [Compound 8, 1-(Naphthalen-2-yl)-3-(1-propionylpiperidin-4-yl)urea] | 
> 5000 nM and 5100 nM | 1700 | CCC(=O)N1CCC(NC(=O)Nc2ccccc2C)CC1 [Compound 10, 1-(1-Propionylpiperidin-4-yl)-3-o-tolylurea] | 
8.7 nM | 40 | CCC(=O)N1CCC(NC(=O)Nc2cccc(C)c2)CC1 [Compound 11] | 
1.3 nM | 8.3 | CCC(=O)N1CCC(NC(=O)Nc2ccc(CC)cc2)CC1 [Compound 13, 1-(4-Ethylphenyl)-3-(1-propionylpiperidin-4-yl)urea] | 
3.3 nM | 2.8 | CCC(=O)N1CCC(NC(=O)Nc2ccc(C(C)C)cc2)CC1 [Compound 14, 1-(4-Isopropylphenyl)-3-(1-propionylpiperidin-4-yl)urea] | 
8.7 nM | 87 | CCC(=O)N1CCC(NC(=O)Nc2ccc(OC)cc2)CC1 [Compound 15, 1-(4-Methoxyphenyl)-3-(1-propionylpiperidin-4-yl)urea] | 
0.4 nM | 3.5 | CCC(=O)N1CCC(NC(=O)Nc2ccc(Oc3ccccc3)cc2)CC1 [Compound 16, 1-(4-Phenoxyphenyl)-3-(1-propionylpiperidin-4-yl)urea] | 
> 5000 nM and 25000 nM | > 5000 | CCC(=O)N1CCC(NC(=O)Nc2cc(OC)c(OC)c(OC)c2)CC1 [Compound 18, 1-(1-Propionylpiperidin-4-yl)-3-(3,4,5-trimethoxyphenyl)urea] | 
650 nM | 2000 | CCC(=O)N1CCC(NC(=O)Nc2ccc(N3CCOCC3)cc2)CC1 [Compound 19, 1-(4-Morpholinophenyl)-3-(1-propionylpiperidin-4-yl)urea] | 
97 nM |  | CCC(=O)N1CCC(NC(=O)Nc2ccc([N+](=O)[O-])cc2)CC1 [Compound 20, 1-(4-Nitrophenyl)-3-(1-propionylpiperidin-4-yl)urea] | 
1000 nM | 330 | CCC(=O)N1CCC(NC(=O)Nc2ccc(C(=O)O)cc2)CC1 [Compound 22, 4-(3-(1-Propionylpiperidin-4-yl)ureido)benzoic acid] | 
1400 nM |  | CCC(=O)N1CCC(NC(=O)Nc2ccc(O)cc2)CC1 [Compound 23, 1-(4-Hydroxyphenyl)-3-(1-propionylpiperidin-4-yl)urea] | 
23 nM | 10 | CCC(=O)N1CCC(NC(=O)Nc2ccc(Cl)cc2)CC1 [Compound 25, 1-(4-Chlorophenyl)-3-(1-propionylpiperidin-4-yl)urea] | 
15 nM | 3.6 | CCC(=O)N1CCC(NC(=O)Nc2ccc(Br)cc2)CC1 [Compound 26, 1-(4-Bromophenyl)-3-(1-propionylpiperidin-4-yl)urea] | 
1.4 nM | 7.2 | CCC(=O)N1CCC(NC(=O)Nc2ccc(I)cc2)CC1 [Compound 27, 1-(4-Iodophenyl)-3-(1-propionylpiperidin-4-yl)urea] | 
20 nM | 39 | CCC(=O)N1CCC(NC(=O)Nc2cccc(F)c2)CC1 [Compound 28, 1-(3-Fluorophenyl)-3-(1-propionylpiperidin-4-yl)urea] | 
780 nM | 300 | CCC(=O)N1CCC(NC(=O)Nc2ccccc2F)CC1 [Compound 29, 1-(2-Fluorophenyl)-3-(1-propionylpiperidin-4-yl)urea] | 

IC50 (murine sEH) | IC50 (Human sEH; [2]) [nM] | SMILES | other results
6.6 nM | 21 | CCC(=O)N1CCC(NC(=O)Nc2cccc(Cl)c2)CC1 [Compound 30, 1-(3-Chlorophenyl)-3-(1-propionylpiperidin-4-yl)urea] | 
2900 nM | 1100 | CCC(=O)N1CCC(NC(=O)Nc2ccccc2Cl)CC1 [Compound 31, 1-(2-Chlorophenyl)-3-(1-propionylpiperidin-4-yl)urea] | 
0.6 nM | 3.4 | CCC(=O)N1CCC(NC(=O)Nc2ccc(Cl)c(Cl)c2)CC1 [Compound 32, 1-(3,4-Dichlorophenyl)-3-(1-propionylpiperidin-4-yl)urea] | 
1 nM | 0.4 | CCC(=O)N1CCC(NC(=O)Nc2cc(Cl)cc(Cl)c2)CC1 [Compound 33, 1-(3,5-Dichlorophenyl)-3-(1-propionylpiperidin-4-yl)urea] | 
> 5000 nM and 38000 nM | > 50000 | CCC(=O)N1CCC(NC(=O)Nc2c(Cl)cccc2Cl)CC1 [Compound 34, 1-(2,6-Dichlorophenyl)-3-(1-propionylpiperidin-4-yl)urea] | IC50 (Human sEH): > 5000 nM
2.3 nM | 4.1 | CCC(=O)N1CCC(NC(=O)Nc2ccc(Cl)c(C(F)(F)F)c2)CC1 [Compound 35, 1-(4-Chloro-3-(trifluoromethyl)phenyl)-3-(1-propionylpiperidin-4-yl)urea] | 
6.5 nM |  | CCC(=O)N1CCC(NC(=O)Nc2ccc(C(F)(F)F)cc2)CC1 [Compound 36, 1-(1-Propionylpiperidin-4-yl)-3-(4-(trifluoromethyl)phenyl)urea] | 
8.8 nM | 17 | CCC(=O)N1CCC(NC(=O)Nc2cccc(C(F)(F)F)c2)CC1 [Compound 37, 1-(1-Propionylpiperidin-4-yl)-3-(3-(trifluoromethyl)phenyl)urea] | 
0.7 nM | 0.4 | CCC(=O)N1CCC(NC(=O)Nc2ccc(C(F)(C(F)(F)F)C(F)(F)F)cc2)CC1 [Compound 38, 1-(4-Perfluoroisopropylphenyl)-3-(1-propionylpiperidin-4-yl)urea] | 
28 nM | 17 | CCC(=O)N1CCC(NC(=O)Nc2ccc(C(F)(C(F)(F)F)C(F)(F)F)cc2C)CC1 [Compound 39, 1-(2-Methyl-4-perfluoroisopropylphenyl)-3-(1-propionylpiperidin-4-yl)urea] | 
1.3 nM | 0.7 | O=C(Nc1ccc(OC(F)(F)F)cc1)NC1CCN(C(=O)c2ccncc2)CC1 [Compound 47, 1-(1-Isonicotinoylpiperidin-4-yl)-3-(4-(trifluoromethoxy)phenyl)urea] | 
0.7 nM | 0.6 | O=C(Nc1ccc(OC(F)(F)F)cc1)NC1CCN(C(=O)c2ccc(Cl)nc2)CC1 [Compound 48, 1-(1-(6-Chloronicotinoyl)piperidin-4-yl)-3-(4-(trifluoromethoxy)phenyl) urea] | 
5 nM | 3.1 | O=C(Nc1ccc(OC(F)(F)F)cc1)NC1CCN(C(=O)Cc2ccccn2)CC1 [Compound 49, 1-(((Pyridin-2-yl)acetyl)piperidin-4-yl)-3-(4-(trifluoromethoxy)phenyl) urea] | 
1.2 nM | 0.5 | CC(=O)N1CCN(CC(=O)N2CCC(NC(=O)Nc3ccc(OC(F)(F)F)cc3)CC2)CC1 [Compound 51, 1-(1-((4-Acetylpiperazin-1-yl)acetyl)piperidin-4-yl)-3-(4-(trifluoromethoxy)phenyl)urea] | 
0.4 nM |  | O=C(Nc1ccc(OC(F)(F)F)cc1)NC1CCN(C(=O)C2CC2)CC1 [Compound 52, 1-(1-(Cyclopropanecarbonyl)piperidin-4-yl)-3-(4-(trifluoromethoxy)phenyl) urea] | 
0.4 nM |  | O=C(Nc1ccc(OC(F)(F)F)cc1)NC1CCN(C(=O)C(F)(F)F)CC1 [Compound 53, 1-(1-(Trifluoroacetyl)piperidin-4-yl)-3-(4-(trifluoromethoxy)phenyl) urea] | 
0.7 nM | 0.4 | CCS(=O)(=O)N1CCC(NC(=O)Nc2ccc(OC(F)(F)F)cc2)CC1 [Compound 56, 1-(1-(Ethylsulfonyl)piperidin-4-yl)-3-(4-(trifluoromethoxy)phenyl)urea] | 
0.4 nM | 1.8 | O=C(Nc1ccc(OC(F)(F)F)cc1)NC1CCN(S(=O)(=O)c2ccccc2)CC1 [Compound 57, 1-(1-(Phenylsulfonyl)piperidin-4-yl)-3-(4-(trifluoromethoxy)phenyl)urea] | 
0.4 nM |  | Cc1ccc(S(=O)(=O)N2CCC(NC(=O)Nc3ccc(OC(F)(F)F)cc3)CC2)cc1 [Compound 58, 1-(1-Tosylpiperidin-4-yl)-3-(4-(trifluoromethoxy)phenyl)urea] | 
 |  | O=C(Nc1ccc(C(F)(F)F)cc1)NC1CCN(C(=O)C2CC2)CC1 [Compound 61, 1-(1-cyclopropanecarbonylpiperidin-4-yl)-3-(4-(trifluoromethyl)phenyl)urea] | AUC [1]: 170 µM·h; Cmax [1]: 10.2 µM; Tmax [1]: 4 h; half-life [1]: 10.6 h
 |  | CCC(C)C(=O)N1CCC(NC(=O)Nc2ccc(C(F)(F)F)cc2)CC1 (stereo not drawn) [Compound 64, 1-(1-(2-methylbutyryl)piperidin-4-yl)-3-(4-(trifluoromethyl)phenyl)urea] | AUC [1]: 3.9 µM·h; Cmax [1]: 4 µM; Tmax [1]: 4 h; half-life [1]: 2.5 h

SMILES | IC50 (murine sEH) | IC50 (Human sEH; [2]) [nM] | other results
CS(=O)(=O)N1CCC(NC(=O)Nc2ccc(OC(F)(F)F)cc2)CC1 [Compound 55, 1-(1-(Methylsulfonyl)piperidin-4-yl)-3-(4-(trifluoromethoxy)phenyl)urea] | 2 nM | 2.9 | 
